Results: PubChem BioAssay AID1918942 (Molecular Pharmacology Branch, DTP, NCI, 2023)

Test system: 743489-274-T-PDC complex spheroid viability
Experiment: Anticancer human tumor 743489-274-T-PDC patient-derived renal cell carcinoma cell line growth inhibition
Settings: for IC50: curve of first compound; for viability, T/C: stronger effect = lower value
Outline: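 Complex spheroids of tumor cells with HUVEC and human MSCs, exposed to iadademstat combined with other agents. Each agent tested in half-log steps from near clinical Cmax (else 10 microM top), DMSO ≤0.25%.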

[1] = second compound 0.1 µM, first compound 0.00949 µM
[2] = second compound 0.1 µM, first compound 0.03 µM
[3] = second compound 0.1 µM, first compound 0.0949 µM
[4] = second compound 0.1 µM, first compound 0.3 µM
[5] = second compound 0.1 µM, first compound 0.949 µM
[6] = second compound 0.1 µM, first compound 3 µM
[7] = second compound 0.316 µM, first compound 0.00949 µM
[8] = second compound 0.316 µM, first compound 0.03 µM
[9] = second compound 0.316 µM, first compound 0.0949 µM
[10] = second compound 0.316 µM, first compound 0.3 µM
[11] = second compound 0.316 µM, first compound 0.949 µM
[12] = second compound 0.316 µM, first compound 3 µM
[13] = second compound 1 µM, first compound 0.00949 µM
[14] = second compound 1 µM, first compound 0.03 µM
[15] = second compound 1 µM, first compound 0.0949 µM
[16] = second compound 1 µM, first compound 0.3 µM
[17] = second compound 1 µM, first compound 0.949 µM
[18] = second compound 1 µM, first compound 3 µM
[19] = second compound 3.16 µM, first compound 0.00949 µM
[20] = second compound 3.16 µM, first compound 0.03 µM
[21] = second compound 3.16 µM, first compound 0.0949 µM
[22] = second compound 3.16 µM, first compound 0.3 µM
[23] = second compound 3.16 µM, first compound 0.949 µM
[24] = second compound 3.16 µM, first compound 3 µM
[25] = second compound 10 µM, first compound 0.00949 µM
[26] = second compound 10 µM, first compound 0.03 µM
[27] = second compound 10 µM, first compound 0.0949 µM
[28] = second compound 10 µM, first compound 0.3 µM
[29] = second compound 10 µM, first compound 0.949 µM
[30] = second compound 10 µM, first compound 3 µM
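Also: spheroids exposed to compounds for 7 days before readout.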
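For viability, T/C in this document: 100% = DMSO vehicle control wells.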

| SMILES | IC50 (second compound 0.1 µM) | IC50 (second compound 0.316 µM) | IC50 (second compound 1 µM) | IC50 (second compound 3.16 µM) | IC50 (second compound 10 µM) | viability, T/C [1] | viability, T/C [2] | viability, T/C [3] | viability, T/C [4] | viability, T/C [5] | viability, T/C [6] | viability, T/C [7] | viability, T/C [8] | viability, T/C [9] | viability, T/C [10] | viability, T/C [11] | viability, T/C [12] | viability, T/C [13] | viability, T/C [14] | viability, T/C [15] | other results |
| --- | --- | --- | --- | --- | --- | --- | --- | --- | --- | --- | --- | --- | --- | --- | --- | --- | --- | --- | --- | --- | --- |
| NS(=O)(=O)OCC1CC(n2ccc3c(NC4CCc5ccccc54)ncnc32)CC1O (stereo not given) + NC1CC1c1ccc(-c2cccc(O)c2)cc1 | > 3000 nM | > 3000 nM | > 3000 nM | > 3000 nM | > 3000 nM | 98% | 107% | 127% | 154% | 154% | 134% | 98.3% | 97.4% | 125% | 150% | 134% | 149% | 108% | 111% | 125% | viability, T/C [16]: 152%; viability, T/C [17]: 168%; viability, T/C [18]: 137%; viability, T/C [19]: 96.5%; viability, T/C [20]: 104%; viability, T/C [21]: 122%; viability, T/C [22]: 145%; viability, T/C [23]: 140%; viability, T/C [24]: 130%; viability, T/C [25]: 90%; viability, T/C [26]: 98.6%; viability, T/C [27]: 129%; viability, T/C [28]: 153%; viability, T/C [29]: 150%; viability, T/C [30]: 142% |
| Nc1ccccc1NC(=O)c1ccc(CNC(=O)OCc2cccnc2)cc1 + NC1CC1c1ccc(-c2cccc(O)c2)cc1 | 678 nM | 773 nM | 642 nM | 1010 nM | 1320 nM | 93.2% | 88.5% | 87.5% | 62.6% | 45.8% | 29.2% | 95.7% | 86.8% | 84.5% | 65.8% | 45.5% | 40.3% | 98.6% | 87.5% | 83.4% | viability, T/C [16]: 62.3%; viability, T/C [17]: 43.2%; viability, T/C [18]: 24.6%; viability, T/C [19]: 92.8%; viability, T/C [20]: 84.5%; viability, T/C [21]: 81.6%; viability, T/C [22]: 72.5%; viability, T/C [23]: 49%; viability, T/C [24]: 36.5%; viability, T/C [25]: 95.5%; viability, T/C [26]: 87.5%; viability, T/C [27]: 77.9%; viability, T/C [28]: 70.1%; viability, T/C [29]: 58.4%; viability, T/C [30]: 35.4% |
| O=C(C=Cc1cccc(S(=O)(=O)Nc2ccccc2)c1)NO + NC1CC1c1ccc(-c2cccc(O)c2)cc1 | 860 nM | 1010 nM | 1550 nM | 915 nM | 1380 nM | 107% | 98.5% | 93% | 67.8% | 49.7% | 28.5% | 102% | 93.2% | 88% | 64.9% | 53.1% | 34% | 98.7% | 99.3% | 84.2% | viability, T/C [16]: 84.1%; viability, T/C [17]: 58.8%; viability, T/C [18]: 35.9%; viability, T/C [19]: 98.5%; viability, T/C [20]: 88.1%; viability, T/C [21]: 90.8%; viability, T/C [22]: 69%; viability, T/C [23]: 50.2%; viability, T/C [24]: 24.1%; viability, T/C [25]: 98.9%; viability, T/C [26]: 97%; viability, T/C [27]: 87.8%; viability, T/C [28]: 81.4%; viability, T/C [29]: 56.6%; viability, T/C [30]: 33.9% |
